Reference: patent US20230058623A1, “NOVEL HETEROARYL-TRIAZOLE COMPOUNDS AS PESTICIDES” (Bayer Aktiengesellschaft, priority 2019, published 2023)

How the values were obtained:
Type in all cases: in vivo
[1] = test system: larvae of the banded cucumber beetle (Diabrotica balteata); test: Diabrotica balteata spray test; details: 168 h, after 7 days, wheat seeds, read-out: activity (efficacy: seedlings grown); for pest or weed control at 32 µg/disc, 100 g/ha: application rate 100 g/ha (=32 μg/well)
How it was run: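 Wheat seeds germinated 1 day on agar were sprayed with compound diluted in water with 1000 ppm emulsifier, then infested with 10-20 Diabrotica balteata larvae. Efficacy in % scored after 7 days: 100% = seedlings grown as untreated, uninfected control; 0% = no seedlings grown.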

[2] = test system: adult unfed cat fleas (Ctenocephalides felis); test: Ctenocephalides felis oral test; details: 48 h, read-out: activity (mortality)
How it was run: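 About 20 adult unfed cat fleas fed through parafilm on citrated cattle blood containing compound (from a DMSO concentrate). Blood held at 37° C, fleas at room temperature. Mortality in % scored after 2 days.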

[3] = test system: adult cat fleas (Ctenocephalides felis); test: Ctenocephalides felis in-vitro contact test, adult cat flea; details: application rate 5 μg/cm^2 (=500 g/ha), after 48 hours, read-out: activity (efficacy: fleas dead or moribund)
How it was run: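 Acetone solutions of compound were coated onto inner walls of glass tubes (900 ppm giving 5 μg/cm^2) and dried; 5-10 adult C. felis were then held 48 h at room temperature. Efficacy = % fleas dead or moribund, judged by inability to escape a 45-50° C heating plate within 5 min.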

[4] = test system: larvae of the southern green stink bug (Nezara viridula); test: Nezara viridula spray test; details: 96 h, after 4 days, barley plants; for mortality at 500 g/ha: application rate 500 g/ha, read-out: activity (mortality)
How it was run: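 Barley plants sprayed with the active compound in emulsifier-containing water, then infested with stink bug larvae. Mortality scored in % after 4 days, with 100% meaning all insects killed.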

[5] = test system: cattle ticks (Rhipicephalus microplus) strain Parkhurst, SP-resistant; test: Rhipicephalus (Boophilus) microplus dip test; details: 168 h, application rate 100 ppm, egg deposition after 7 days, read-out: activity (efficacy: infertile eggs)
Method: Rhipicephalus (Boophilus) microplus—Dip Test
Test animal: cattle ticks (Rhipicephalus microplus) strain Parkhurst, SP-resistant
Solvent: dimethyl sulfoxide
To produce a suitable preparation of active compound, 10 mg of active compound are dissolved in 0.5 mL solvent, and the concentrate is diluted with water to the desired concentration.
This compound solution is pipetted into tubes. 8-10 engorged, adult, female cattle ticks (Rhipicephalus microplus) are placed in perforated tubes. These tubes are immersed in the aqueous compound solution until the ticks are completely moistened. After the liquid has drained off, the ticks are transferred to a filter paper in a plastic tray and stored in a climate chamber.
After 7 days egg deposition of fertile eggs is monitored. Eggs where fertility is not visible are stored in a climate chamber till hatching after about 42 days. An efficacy of 100% means all eggs are infertile; 0% means all eggs are fertile.

[6] = test system: fall armyworm larvae (Spodoptera frugiperda); test: Spodoptera frugiperda spray test; details: 168 h, application rate 100 g/ha, after 7 days, maize leaf sections
How it was run: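 Caterpillars are placed on sprayed, dried maize leaf sections. Sprays contain compound diluted in water with emulsifier at 1000 ppm; mortality in % is determined 7 days later.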

[7] = test system: brown planthopper (Nilaparvata lugens); test: Nilaparvata lugens spray test; details: 96 h, application rate 500 g/ha, after 4 days, rice plants
Method: Nilaparvata lugens—Spray Test
To produce a suitable preparation of active compound, 1 part by weight of active compound is mixed with the stated amount of solvents and is diluted with water, containing an emulsifier concentration of 1000 ppm, to the desired concentration. Further test concentrations are prepared by dilution with emulsifier containing water.
Rice plants (Oryza sativa) are sprayed with a preparation of the active ingredient of the desired concentration and the plants are infested with the brown planthopper (Nilaparvata lugens).
After 4 days mortality in % is determined. 100% means all planthoppers have been killed and 0% means none of the planthoppers have been killed.

[8] = test system: adult engorged female ticks (Rhipicephalus microplus); test: Rhipicephalus (Boophilus) microplus injection test; details: 168 h, application rate 4 μg/tick, egg deposition after 7 days, read-out: activity (efficacy: infertile eggs)
How it was run: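 Efficacy is scored from egg fertility, with 100% meaning every egg infertile and 0% every egg fertile. Five engorged females per test received 1 μL DMSO solution abdominally. Eggs of unclear fertility were kept until hatching, about 42 days.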

[9] = test system: green peach aphid (Myzus persicae); test: Myzus persicae oral test; details: 120 h, read-out: activity (mortality)
How it was run: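 Compound was dissolved at 1 part by weight in 100 parts acetone, then diluted with water to test concentration and combined with IPL41 insect medium (33%+15% sugar). A mixed aphid population fed on this through a parafilm seal, and mortality (%) was scored after 5 days.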

[10] = test system: green peach aphid (Myzus persicae); test: Myzus persicae spray test; details: foliar, 120 h, after 5 days, Chinese cabbage leaf disks; for mortality at 100 g/ha: application rate 100 g/ha, read-out: activity (mortality)
How it was run: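 Chinese cabbage leaf disks infested with all aphid instars were sprayed with compound diluted in water containing emulsifier (1000 ppm). Mortality (%) was scored after 5 days, 100% meaning all aphids killed.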

[11] = test system: adult mosquitoes Aedes aegypti strain MONHEIM; test: Aedes aegypti test (AEDSAE surface treatment & contact assay); details: 24 hours after contact, read-out: efficacy (mortality); for mortality at 20 mg/m2: surface concentration 20 mg/m^2, exposure 30 minutes
How it was run: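 Compound in acetone (2 mg/ml) with 2000 ppm RME dried onto glazed tile; adults exposed to the treated surface for 30 min. Percent mortality scored 24 h after contact.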

[12] = test system: Rhipicephalus (Boophilus) microplus larvae (strain Parkhurst, resistant against synthetic pyrethroids); test: Rhipicephalus (Boophilus) microplus in-vitro contact test, larval cattle tick; details: after 48 hours, read-out: activity (efficacy: larvae dead or moribund); for pest or weed control at 1 µg/cm2, 100 g/ha: application rate 1 μg/cm^2 (=100 g/ha); for pest or weed control at 5 µg/cm2, 500 g/ha: application rate 5 μg/cm^2 (=500 g/ha)
How it was run: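 Acetone solutions were coated onto glass tube walls, giving 5 μg/cm^2 at 900 ppm. Once dry, 20–50 pyrethroid-resistant Parkhurst larvae were added per tube and held 48 h at 27 °C and 85% RH. Efficacy was scored by negative geotaxis as the percentage of dead or moribund larvae.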

[13] = test system: southern root-knot nematode (Meloidogyne incognita); test: Meloidogyne incognita test; details: application rate 20 ppm; after 14 days
Method: Meloidogyne incognita—Test
Solvent: 125.0 parts by weight of acetone
To produce a suitable preparation of active compound, 1 part by weight of active compound is mixed with the stated amount of solvent, and the concentrate is diluted with water to the desired concentration.
Vessels are filled with sand, a solution of the active ingredient, a suspension containing eggs and larvae of the southern root-knot nematode (Meloidogyne incognita) and salad seeds. The salad seeds germinate and the seedlings grow. Galls develop in the roots.
After 14 days the nematicidal activity is determined based on the percentage of gall formation. 100% means no galls were found and 0% means the number of galls found on the roots of the treated plants was equal to that in untreated control plants.

[14] = test system: adult brown dog ticks (Rhipicephalus sanguineus); test: Rhipicephalus sanguineus in-vitro contact test, adult brown dog ticks; details: application rate 5 μg/cm^2 (=500 g/ha), after 48 hours, read-out: activity (efficacy: ticks dead or moribund)
How it was run: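 Efficacy (%) reflects the fraction of adult ticks dead or moribund after 48 h of contact with a dried acetone film on tube walls at 5 μg/cm^2 (from 900 ppm). Moribund status was assessed by inability to climb away from heat at 45-50° C.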

[15] = test system: adult flies Musca domestica strain WHO-N; test: Musca domestica test (MUSCDO surface treatment & contact assay); details: surface concentration 20 mg/m^2, exposure 30 minutes, 24 hours after contact, read-out: efficacy (mortality)
How it was run: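 Compound dissolved at 2 mg/ml in acetone with 2000 ppm RME, applied to glazed tile and dried; adult flies exposed on the surface for 30 min. Percent mortality scored 24 h after contact.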

[16] = test system: adult mosquitoes Anopheles funestus strain FUMOZ-R; test: Anopheles funestus test (ANPHFU surface treatment & contact assay); details: surface concentration 20 mg/m^2, exposure 30 minutes, 24 hours after contact, read-out: efficacy (mortality)
Method: Anopheles funestus Test (ANPHFU Surface Treatment & Contact Assay)
Solvent: Aceton+2000 ppm rapeseed oil methyl ester (RME)
In order to produce a sufficient, active ingredient containing solution it is necessary to solve the test compound in the solvent-mix (acetone at 2 mg/ml/RME 2000 ppm). This solution is pipetted onto a glazed tile and after evaporation of the acetone, adult mosquitoes of the species Anopheles funestus strain FUMOZ-R (Hunt et al., Med. Vet. Entomol. 2005 September; 19(3): 271-275) are placed onto the dried surface. The exposure time is 30 minutes.
Mortality in percent (%) is determined 24 hours after contact of the insects to the treated surface. 100% mortality means that all tested insects are dead, whereas 0% means that no insect died.

Structure (SMILES) | mortality at 100 ppm [2] [%] | pest or weed control at 5 µg/cm2 [3] [%] | mortality at 500 g/ha [4] [%] | pest or weed control at 100 ppm [5] [%] | mortality at 100 g/ha [6] [%] | mortality at 500 g/ha [7] [%] | pest or weed control at 0.004 mg [8] [%] | mortality at 4 ppm [9] [%] | mortality at 100 g/ha [10] [%] | mortality at 20 mg/m2 [11] [%] | pest or weed control at 1 µg/cm2, 100 g/ha [12] [%] | pest or weed control at 5 µg/cm2, 500 g/ha [12] [%] | activity (nematicidal activity based on gall formation) [13] [%] | pest or weed control at 5 µg/cm2, 500 g/ha [14] [%] | mortality at 20 mg/m2 [15] [%] | also measured
C[C@H](NC(=O)c1cc(Cl)cc(C(F)(F)F)c1)c1ncnn1-c1ccc(C(=O)N2CCOCC2)cn1 [Example I-1] | 100 | 100 | 100 | 80 | 100 | 100 | 100 | 100 | 100 | 80 to 100 | – | – | – | – | – | pest or weed control at 160 µg/disc, 500 g/ha ([1]; application rate 500 g/ha (=160 μg/well)): 100%; mortality at 500 g/ha ([10]; application rate 500 g/ha): 100%; mortality at 4 mg/m2 ([11]; surface concentration 4 mg/m^2, exposure 30 minutes): 80 to 100%
C[C@H](NC(=O)c1cc(C(F)(F)F)cc(C(F)(F)F)c1)c1ncnn1-c1ccc(C(=O)N2CCC(O)C2)cn1 (stereo partly drawn) [Example I-13] | 100 | – | – | 80 | – | – | 100 | 100 | 100 | – | 100 | 100 | – | – | – | –
Cc1nc([C@H](C)NC(=O)c2cc(Cl)cc(C(F)(F)F)c2)n(-c2cc(C(=O)N3CCCC3)ccn2)n1 [Example I-27] | 100 | – | – | – | – | – | 80 | – | – | – | 100 | 100 | 90 | 80 | – | –
Cc1nc([C@H](C)NC(=O)c2cc(Cl)cc(C(F)(F)F)c2)n(-c2cc(C(=O)N3CCC3)ccn2)n1 [Example I-28] | 100 | – | – | – | – | – | 80 | – | – | – | 90 | 90 | 90 | – | – | –
COC1CCN(C(=O)c2ccc(-n3ncnc3[C@H](C)NC(=O)c3cc(Cl)cc(C(F)(F)F)c3)nc2)CC1 [Example I-30] | – | 80 | – | – | – | – | 100 | 100 | 90 | – | 100 | 100 | 90 | – | – | –
Cc1nc([C@H](C)NC(=O)c2cc(C(F)(F)F)cc(C(F)(F)F)c2)n(-c2ccc(C(=O)N3C[C@@H](C)O[C@H](C)C3)cn2)n1 [Example I-47] | 90 | 100 | – | 100 | 100 | – | 100 | 100 | 100 | – | 100 | 100 | – | 100 | – | –
C[C@H](NC(=O)c1cc(C(F)(F)F)cc(C(F)(F)F)c1)c1ncnn1-c1ccc(C(=O)N2CCN(C)C(=O)C2)cn1 [Example I-79] | – | – | 100 | – | 100 | 100 | – | 100 | – | 80 to 100 | – | – | – | – | 80 to 100 | mortality at 20 mg/m2 [16]: 80 to 100%
CC1CN(C(=O)c2ccc(-n3ncnc3[C@H](C)NC(=O)c3cc(C(F)(F)F)cc(S(C)(=O)=O)c3)nc2)CCO1 (stereo partly drawn) [Example I-81] | – | – | 100 | – | – | 100 | – | 100 | – | – | – | – | 100 | – | – | mortality at 100 g/ha ([4]; application rate 100 g/ha): 100%
C[C@H](NC(=O)c1cc(C(F)(F)F)cc(C(F)(F)F)c1)c1nc(C2CC2)nn1-c1ccc(C(=O)N2CCOCC2)cn1 [Example I-88] | – | 100 | 100 | – | 100 | – | – | – | 90 | 80 to 100 | 100 | 100 | 100 | 100 | 80 to 100 | pest or weed control at 32 µg/disc, 100 g/ha [1]: 100%
Cc1nc([C@H](C)NC(=O)c2cc(C(F)(F)F)cc(C(F)(F)F)c2)n(-c2ncc(C(=O)N3C[C@@H](C)O[C@@H](C)C3)s2)n1 [Example I-107] | 100 | – | – | 100 | 100 | – | 100 | 100 | – | – | 100 | 100 | – | 100 | 80 to 100 | pest or weed control at 32 µg/disc, 100 g/ha [1]: 100%
